Test results reported in ChEMBL document CHEMBL4627310, “Design, synthesis and biological evaluation of 3-nitro-1,8-naphthalimides as potential antitumor agents” (Bioorg Med Chem Lett, 2020).

Legend:
A549 = experiment: Antiproliferative activity against human A549 cells assessed as cell growth inhibition measured after 48 hrs by MTT assay; type: functional, cell-based; conditions: A549, 48 h
SK-OV-3 = experiment: Antiproliferative activity against human SKOV3 cells assessed as cell growth inhibition measured after 48 hrs by MTT assay; type: functional, cell-based; conditions: SK-OV-3, 48 h
L02 = experiment: Cytotoxicity against human HL7702 cells assessed as cell growth inhibition measured after 48 hrs by MTT assay; type: cell-based; conditions: L02, 48 h
SMMC-7721 = experiment: Antiproliferative activity against human SMMC7721 cells assessed as cell growth inhibition measured after 48 hrs by MTT assay; type: functional, cell-based; conditions: SMMC-7721, 48 h
HepG2 = experiment: Antiproliferative activity against human HepG2 cells assessed as cell growth inhibition measured after 48 hrs by MTT assay; type: functional, cell-based; conditions: HepG2, 48 h
T-24 = experiment: Antiproliferative activity against human T24 cells assessed as cell growth inhibition measured after 48 hrs by MTT assay; type: functional, cell-based; conditions: T-24, 48 h

Question: For `O=C1c2cccc3cc([N+](=O)[O-])cc(c23)C(=O)N1c1ccc2[nH]c(=O)[nH]c2c1`, which IC50 (A549) is on record?
Answer: The IC50 was 44.8 µM.

Question: And the IC50 (SK-OV-3)?
Answer: Its IC50 is 41.4 µM.

Question: What about the IC50 (L02) of the same molecule?
Answer: Its IC50 is over 100 µM.

Question: What about the IC50 (SMMC-7721) of the same molecule?
Answer: Its IC50 is 54.7 µM.

Question: What about the IC50 (HepG2) of the same molecule?
Answer: The IC50 was 23.9 µM.

Question: And the IC50 (T-24)?
Answer: The IC50 was 58 µM.
